Experimental data from US9499823B2, “Constructs expressing chimeric receptors and use thereof for the controlled activation of defence response to pathogens in plants” (priority 2009, dated 2016).
Where no end group is shown, it is not given here.

Key:
[1] = test system: RetOx, CYP81F2 and PAD3 transcripts; assay: Elicitor-induced accumulation of Ret-Ox, CYP81F2 and PAD3 transcripts, semi-quantitative PCR; type: cell-based, Arabidopsis thaliana; details: flg22 1 μM, 30 minutes
Protocol: B) Elicitor induced accumulation of Ret-Ox, CYP81F2 and PAD3 transcripts analysed by semi-quantitative PCR, using the UBQ5 gene for normalization. Leaves were incubated with water, flg22 (1 μM), elfl8 (10 μM) or a generic peptide (10 μM) for 30 minutes. The experiment was repeated three times with similar results. The same experiment was performed in a second independent transgenic line expressing eJMC with similar results.
3,3′-diaminobenzidine (DAB) staining, callose deposition and gene resistance analysis were assayed as described (Galletti et al., 2008). For measuring active oxygen species released by tobacco agroinfiltrated plants after elicitor treatment, the authors used a modified luminol-dependent assay (Gomez et al., 1999). Slices, corresponding to approximately 30 mg fresh weight, were transferred to assay tubes containing 1 μM flg22 or 10 μM elfl8 in aqueous solution supplied with 40 μM luminol (SIGMA). Chemo-luminescence was measured in a liquid scintillation counter (LS-6500, Beckman) after 5 and 15 min upon addition of elicitors.
Fluorescent eJMC and FLS2 were also stably expressed in transgenic Arabidopsis ecotype Wassilewskija (Ws-0), which carries EFR but lacks a flg22 perception system (Gomez-Gomez et al., 1999, Bauer et al., 2001). Transformed T1 plants expressing the proteins, named eJMC plants and FLS2 plants, respectively, were selected by confocal microscopy analysis of adult rosette leaves. […] Fluorescence was detected only in adult rosette leaves, likely due to a low expression level of the receptor at the different developmental stages.

[2] = test system: agroinfiltrated leaves of N. tabacum ecotype SR1; assay: Receptor internalization in agroinfiltrated tobacco leaves; type: cell-based, Nicotiana tabacum; details: 10 μM flg22, 30 min
Protocol: E) Relative variation of fluorescence in agroinfiltrated tobacco leaves expressing EFR, FLS2, eJMC and TMC and treated with 10 μM elfl8 or 10 μM flg22 for 30 min.
(§1) The GFP-dependent fluorescence was monitored from 2 to 4 days post infection in cells of the lower epidermis. Pieces of leaf were randomly cut from the infected area and mounted in water or supplemented with elicitors for microscopic observations. Flg22 and elfl8 were used at 10 μM while oligosaccharides were used at 100 μg/mL. Materials were analyzed using a Leica DM IRE epifluorescence microscope equipped with a digital cooled camera (DFC350FX R2; Leica). GFP fluorescence was excited with a 488-nm laser line, and emitted fluorescence was collected at 543-nm. The Leica Confocal Software and Adobe Photoshop 5.0 were used for post-acquisition image processing. All samples were imaged with the 40× or 100× oil objectives. Pictures were taken in Kahlman frame giving an average of 16 scans for the dynamics of internalization and 4 scans for the cellular localizations.
The behaviour of TMC and eJMC upon treatment with flg22 and elfl8 was also analysed in agroinfiltrated leaves of N. tabacum ecotype SR1 and compared to that of EFR and FLS2. […] Instead, in the eJMC expressing plants fluorescence decreased within 10-30 min after stimulation with flg22, at an extent similar to that observed in Arabidopsis, i.e. by 25% and 35% after 20 min and 30 min, respectively (FIG. 3E).

[3] = test system: ethylene biosynthesis in tobacco leaves; assay: Induction of ethylene biosynthesis in agroinfiltrated tobacco leaf explants; type: cell-based, Nicotiana tabacum; details: flg22, 2 h; compared with EFR-expressing explants as negative controls
Protocol: F) Induction of ethylene biosynthesis in agroinfiltrated tobacco leaves expressing the fluorescent EFR, FLS2, TMC, eJMC and eJMC^Y859A. NC: negative control, represented by agroinfiltrated leaf tissues expressing fluorescent EFR or FLS2 and elicited with flg22 or elfl8, respectively. Results are averages±standard error (n=3).
Excised infiltrated leaf sectors were stimulated for 2 h with water or the elicitor ([…] and 100 μg/ml for OGs). Values are means±s.e.m. (N=3).
E) Induction of ethylene biosynthesis in agroinfiltrated tobacco leaves expressing EFR, WAK1, WEG and EWAK. Each construct was stimulated for 2 h with elfl8 (10 μM) or OGs (100 μg/mL). NC: negative control, represented by agroinfiltrated leaf tissue expressing EFR or FLS2 when OGs or elfl8, respectively, were used for elicitation. Error bars indicate the standard error of three independent replicates.
(A) Induction of ethylene biosynthesis in agroinfiltrated tobacco explants expressing EFR, WAK1, WEG and EWAK. […] Agroinfiltrated leaf tissues expressing EFR or WEG and elicited with OGs or elfl8 respectively, represented our negative control. Values are means±s.e.m. (N=3). (B) Elicitor-induced gene expression in untransformed Col-0 and Col-0 efr plants, and in transgenic Arabidopsis Col-0 efr plants stably expressing WEG. Accumulation of At3g22270 and At4g37640 transcripts was analysed by semi-quantitative PCR, using the UBQ5 gene for normalization. Adult leaves were syringe-infiltrated with water, OGs (25 μg/ml) or elfl8 (10 μM) for 3 h. The experiment was repeated three times with similar results. The same experiment was performed in a second independent transgenic line expressing WEG with similar results.
Approximately 150 mg of tobacco agroinfiltrated leaf were cut in small slices and extensively washed with sterile distilled water. The explants were placed in sealed 10 mL flasks containing 2 mL of sterile water alone or supplemented with 100 mg L^−1 OGs, or 1 μM flg22 or 10 μM elfl8. 450 μl headspace samples were withdrawn from the vial after 2 h treatment and analyzed by gas chromatography-mass spectrometry using an Agilent 6850A gas chromatograph coupled to a 5973N quadrupole mass selective detector (Agilent Technologies, Palo Alto, Calif., USA). Chromatographic separations were carried out an HP Plot-Q fused-silica capillary column (30 m×0.32 mm i.d.) coated with polystyrene-divinylbenzene (film thickness 0.20 μm) as stationary phase. Injection mode: splitless at a temperature of 220° C. The initial temperature of the oven was held at 50° C. for 8 min then ramped to 220° C. at a rate of 15° C./min and held for 5 min. Helium was used as carrier gas at a constant flow of 1.0 ml/min. Mass spectra were collected both in full scan and in SIM mode monitoring the ions m/z m/z 26, m/z 27 and m/z 28 (ionization energy 70 eV; ion source 280° C.; ion source vacuum 10^−5 Torr).

[4] = test system: agroinfiltrated Arabidopsis thaliana Col-0 leaves; assay: Receptor internalization: decrease of GFP fluorescence by confocal microscopy in agroinfiltrated Arabidopsis Col-0 leaves; type: cell-based; details: 10 μM flg22, 30 min
Protocol: PCR templates are shown in bold. Primers listed in Table 1 are shown in capital letters. Stable transgenic lines were generated using the standard A. tumefaciens-mediated gene transfer procedure of inflorescence infiltration (Bent et al., 2006). Independent transformed plant pools were kept separate for the selection of independent transgenic lines based on their phosphinotrycin resistance and leaves GFP fluorescence. Tobacco and Arabidopsis transient transgenic lines were prepared by infiltrating with Agrobacterium tumefaciens carrying the individual constructs, as described by Reca (2008).
as §1, with “localizations. […]” for “localizations.”
The dynamics of fluorescence localization upon treatment with elicitors was then studied. Whereas endocytosis of surface receptors upon ligand binding often occurs in animals (Warren and Landgraf 2006), this mechanism in plants has emerged only recently (Geldner & Robatzek 2008) and, so far, FLS2 is the only receptor involved in plant immunity shown to undergo endocytosis upon the specific stimulation with flg22 (Robatzek et al., 2006). The authors tested the effect of flg22 and elf 18, i.e. the peptides specifically recognized by FLS2 and EFR respectively, and oligogalacturonides with a degree of polymerization between 10 and 16 (OGs), which act as general elicitors of defense responses in several plants. Explants from agroinfiltrated Arabidopsis leaves at 2 dpi were treated with elicitors and then subjected to confocal microscopy analysis. […] Instead, when eJMC-expressing explants were stimulated with flg22, the fluorescent signal decreased by 25% and 40% after 20 min and 30 min, respectively (FIG. 3B).
The first chimeric receptor, indicated as WEG, comprised the WAK1 ectodomain fused to the TM-iJM-kinase portion of EFR and was designed to test the ability of the WAK1 ectodomain to perceive OGs and transmit the signal inside the cell. […] Both WEG and EWAK as well as WAK1 were fused to GFP and used in agroinfiltration experiments (FIG. 5A). […] Western-blot analysis using GFP-specific antibodies on proteins from IWF and microsomal fractions prepared from infiltrated leaves confirmed the plasma membrane localization of both fluorescent chimeras (FIG. 5D). The effect of OGs on the internalization of WEG was followed in agroinfiltrated Arabidopsis Col-0 leaves. […] This might be due to the inability of WEG to uncouple its ectodomain from pectins, since it is known that WAK1 strongly binds to pectin and only denaturing treatments allow its separation from cell wall (He et al., 1996). On the other hand, affinity studies have shown that WAK1 interact with cell wall pectins that are in a Ca^2+-induced conformation (i.e. the structures called “egg boxes”) and that the interaction is disrupted by adding a chelating agent such as EDTA (Decreux et al., 2005; Cabrera et al., 2008). The authors therefore tested whether OG-induced internalization of WEG occurred in the presence of 5 mM EDTA. WEG-expressing agroinfiltrated leaves were syringe-infiltrated with OGs and after 30 min the tissues were mounted in the presence of EDTA for confocal microscopy analysis. […]

| Substance | expression of RetOx, CYP81F2 and PAD3 in untransformed Ws-0 plants [1] | internalization after stimulation with flg22 [2] | ethylene release induced by flg22 [3] | decrease in fluorescence upon treatment with flg22 [4] |
| --- | --- | --- | --- | --- |
| QRLSTGSRINSAKDDAAGLQIA [flg22] | not in the untransformed plants | – | – | – |
| TMC: chimera (Ala817FLS2-Leu661EFR): FLS2 LRR, eJM and N-terminal half of TM fused to C-terminal half of EFR TM, iJM and kinase | – | Neither FLS2 nor TMC underwent internalization | only a weak response | did not show any decrease in fluorescence |
